Test results from patent US8828992B2, “Substituted azole derivatives, pharmaceutical composition containing the derivatives, and method for treating Parkinson's disease using the same” (priority 2009, dated 2014).

Target: T1, Monoamineoxidase B type human-derived enzyme (Homo sapiens, UniProt P27338)
T1 sequence (P27338 1-520): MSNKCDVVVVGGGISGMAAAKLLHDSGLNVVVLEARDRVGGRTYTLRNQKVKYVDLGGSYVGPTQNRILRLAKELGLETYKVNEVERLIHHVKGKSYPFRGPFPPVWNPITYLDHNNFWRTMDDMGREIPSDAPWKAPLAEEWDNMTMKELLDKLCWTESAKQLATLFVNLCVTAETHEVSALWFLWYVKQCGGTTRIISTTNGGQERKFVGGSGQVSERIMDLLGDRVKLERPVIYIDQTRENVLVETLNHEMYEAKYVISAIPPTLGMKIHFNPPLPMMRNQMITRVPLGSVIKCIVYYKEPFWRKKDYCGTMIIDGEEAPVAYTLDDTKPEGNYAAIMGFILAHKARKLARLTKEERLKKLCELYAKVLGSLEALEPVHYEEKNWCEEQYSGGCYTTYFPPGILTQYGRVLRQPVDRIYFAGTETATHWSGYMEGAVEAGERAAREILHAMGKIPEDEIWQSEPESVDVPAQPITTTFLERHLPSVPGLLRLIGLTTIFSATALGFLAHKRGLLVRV
Assay: Inhibitory effects on the activity of MAO-B (Amplex Red fluorescence, benzylamine substrate)
Format: biochemical
Conditions: read-out: Inhibitory effects (%) on the activity of MAO-B
Protocol: Monoamineoxidase A or B type human-derived enzyme (5 mg/ml) was each diluted with 0.05 M sodium phosphate buffer (pH 7.4) to yield a dilution of 1:200, and then 100 μl of an enzyme buffer containing 2 μl of a compound 1 solution at the corresponding concentration was placed in a test plate (flat-bottom) and incubated for 30 minutes.
100 μl of a working buffer containing 400 μM of Amplex Red reagent, 2 U/ml horseradish peroxidase, and 2 mM substrate (tyramine for MAO-A and benzylamine for MAO-B) in 0.05 M sodium phosphate buffer (pH 7.4) was mixed with a pre-incubated enzyme buffer at 1:1 and measured using fluorescence (EX: 563 nm & EM: 587 nm) for 30 minutes.

| Molecule | inhibition at 0.01 µM |
| --- | --- |
| NC(=O)OCCCOc1ccc(-c2cc(COC(N)=O)on2)cc1 [Example 52, carbamic acid 3-[4-(5-carbamoyloxymethyl-isoxazol-3-yl)-phenoxy]-propyl ester] | 26.6% |
| NC(=O)OCc1cc(-c2ccc(OCC3CCCC3)cc2)no1 [Example 193, Carbamic acid 3-(4-cyclopentylmethoxy-phenyl)-isoxazol-5-ylmethyl ester] | 88.1% |

Same assay, conditions: treatment concentration 10 nM

| Molecule | Inhibitory effects (%) on the activity of MAO-B |
| --- | --- |
| 3-[4-(3-chloro-benzyloxy)-phenyl]-isoxazol-5-ylmethyl ester [Example 20] | 96.2% |

Same assay, conditions: treatment concentration 10 nM; read-out: Inhibitory effects (%) on the activity of MAO-B

| inhibition at 0.01 µM | Molecule |
| --- | --- |
| 92.7% | NC(=O)OCc1cc(-c2ccc(OCc3c(Cl)cccc3Cl)cc2)no1 [Example 23, carbamic acid 3-[4-(2,6-dichlorobenzyloxy)-phenyl]-isoxazol-5-ylmethyl ester] |
| 80.3% | Cc1ccccc1COc1ccc(-c2cc(COC(N)=O)on2)cc1 [Example 29, carbamic acid 3-[4-(2-methyl-benzyloxy)-phenyl]-isoxazol-5-ylmethyl ester] |
| 83.3% | NC(=O)OCc1cc(-c2ccc(NCc3ccccc3Cl)cc2)no1 [Example 86, Carbamic acid 3-[4-(2-chloro-benzylamino)-phenyl]-isoxazol-5-ylmethyl ester] |
| 48.7% | O=C(OCc1cc(-c2ccc(OCc3ccccc3)cc2)no1)N1CCCCC1 [Example 126, piperidine-1-carboxylic acid 3-(4-benzyloxy-phenyl)-isoxazol-5-ylmethyl ester] |
| 54.9% | NC(=O)OCc1cc(-c2ccc(NCc3cc(F)ccc3F)cc2)no1 [Example 83, Carbamic acid 3-[4-(2,5-difluoro-benzylamino)-phenyl]-isoxazol-5-ylmethyl ester] |
| 20.3% | NC(=O)OCc1cc(-c2ccc(NCc3cc(Cl)ccc3Cl)cc2)no1 [Example 90, carbamic acid 3-[4-(2,5-dichloro-benzylamino)-phenyl]-isoxazol-5-ylmethyl ester] |
| 90.2% | COc1cccc(COc2ccc(-c3cc(COC(N)=O)on3)cc2)c1 [Example 30, Carbamic acid 3-[4-(3-methoxy-benzyloxy)-phenyl]-isoxazol-5-ylmethyl ester] |
| 20.7% | Cc1ccc(CNc2ccc(-c3cc(COC(N)=O)on3)cc2)c(C)c1 [Example 103, Carbamic acid 3-[4-(2,4-dimethyl-benzylamino)-phenyl]-isoxazol-5-ylmethyl ester] |
| 94.2% | NC(=O)OCc1cc(-c2ccc(OCc3cccc(C(F)(F)F)c3)cc2)no1 [Example 19, carbamic acid 3-[4-(3-trifluoromethyl-benzyloxy)-phenyl]-isoxazol-5-ylmethyl ester] |
| 84.7% | NC(=O)OCc1cc(-c2ccc(NCc3ccccc3F)cc2)no1 [Example 78, Carbamic acid 3-[4-(2-fluoro-benzylamino)-phenyl]-isoxazol-5-ylmethyl ester] |
| 56.5% | NC(=O)OCc1cc(-c2ccc(NCc3cc(F)cc(F)c3)cc2)no1 [Example 82, Carbamic acid 3-[4-(3,5-difluoro-benzylamino)-phenyl]-isoxazol-5-ylmethyl ester] |
| 96.2% | NC(=O)OCc1cc(-c2ccc(OCc3cccc(F)c3F)cc2)no1 [Example 15, carbamic acid 3-[4-(2,3-difluoro-benzyloxy)-phenyl]-isoxazol-5-ylmethyl ester] |
| 86% | c1ccc(COc2ccc(-c3cc(Cn4ncnn4)on3)cc2)cc1 [Example 146, 2-[3-(4-benzyloxy-phenyl)-isoxazol-5-ylmethyl]-2H-tetrazole] |
| 77.1% | NC(=O)OCc1cc(-c2ccc(NCc3cccc(F)c3)cc2)no1 [Example 77, Carbamic acid 3-[4-(3-fluoro-benzylamino)-phenyl]-isoxazol-5-ylmethyl ester] |
| 92.9% | NC(=O)OCc1cc(-c2ccc(OCc3ccccc3Cl)cc2)no1 [Example 21, carbamic acid 3-[4-(2-chloro-benzyloxy)-phenyl]-isoxazol-5-ylmethyl ester] |
| 31.7% | NC(=O)OCCNCc1cc(-c2ccc(OCc3ccccc3)cc2)no1 [Example 177, Carbamic acid 2-{[3-(4-benzyloxy-phenyl)-isoxazol-5-ylmethyl]-amino}-ethyl ester] |
| 52.7% | COCCNCc1cc(-c2ccc(OCc3ccccc3)cc2)no1 [Example 174, [3-(4-benzyloxy-phenyl)-isoxazol-5-ylmethyl]-(2-methoxy-ethyl)-amine] |
| 97.4% | CN(C)Cc1cc(-c2ccc(OCc3ccccc3)cc2)no1 [Example 150, [3-(4-benzyloxy-phenyl)-isoxazol-5-ylmethyl]-dimethyl-amine] |

| inhibition at 0.01 µM | Molecule |
| --- | --- |
| 91.5% | NC(=O)OCc1cc(-c2ccc(OCc3c(F)cc(F)cc3F)cc2)no1 [Example 18, carbamic acid 3-[4-(2,4,6-trifluoro-benzyloxy)-phenyl]-isoxazol-5-ylmethyl ester] |
| 88.3% | NC(=O)OCc1cc(-c2ccc(OCc3ccccc3)cc2Cl)no1 [Example 5, carbamic acid 3-(4-benzyloxy-2-chloro-phenyl)-isoxazol-5-ylmethyl ester] |
| 70.7% | Fc1cc(F)c(COc2ccc(-c3cc(Cn4ccnc4)on3)cc2)c(F)c1 [Example 155, 5-imidazol-1-ylmethyl-3-[4-(2,4,6-trifluoro-benzyloxy)-phenyl]-isoxazole] |
| 60% | NC(=O)OCc1cc(-c2ccc(NCc3cccc(Cl)c3Cl)cc2)no1 [Example 88, carbamic acid 3-[4-(2,3-dichloro-benzylamino)-phenyl]-isoxazol-5-ylmethyl ester] |
| 39.2% | c1ccc(COc2ccc(-c3cc(Cn4ccnn4)on3)cc2)cc1 [Example 145, 1-[3-(4-benzyloxy-phenyl)-isoxazol-5-ylmethyl]-1H-[1,2,3]triazole] |
| 82.7% | Fc1ccc(COc2ccc(-c3cc(Cn4ccnc4)on3)cc2)c(F)c1 [Example 154, 3-[4-(2,4-difluoro-benzyloxy)-phenyl]-5-imidazol-1-ylmethyl-isoxazole] |
| 93% | NC(=O)OCc1cc(-c2ccc(OCc3ccc4c(c3)OCO4)cc2)no1 [Example 203, carbamic acid 3-[4-(benzo[1,3]dioxol-5-ylmethoxy)-phenyl]-isoxazol-5-ylmethyl ester] |
| 24.1% | NC(=O)OCc1cc(-c2ccc(NCc3cc(Cl)cc(Cl)c3)cc2)no1 [Example 93, carbamic acid 3-[4-(3,5-dichloro-benzylamino)-phenyl]-isoxazol-5-ylmethyl ester] |
| 97.3% | c1ccc(COc2ccc(-c3cc(Cn4cncn4)on3)cc2)cc1 [Example 144, 1-[3-(4-benzyloxy-phenyl)-isoxazol-5-ylmethyl]-1H-[1,2,4]triazole] |
| 53.7% | COc1cccc(CNc2ccc(-c3cc(COC(N)=O)on3)cc2)c1 [Example 105, Carbamic acid 3-[4-(3-methoxy-benzylamino)-phenyl]-isoxazol-5-ylmethyl ester] |
| 21.8% | NC(=O)C(CO)NCc1cc(-c2ccc(OCc3ccccc3)cc2)no1 (stereo not drawn) [Example 167, 2-{[3-(4-benzyloxy-phenyl)-isoxazol-5-ylmethyl]-amino}-3-hydroxy-propionamide] |
| 91.7% | Cc1nccn1Cc1cc(-c2ccc(OCc3ccccc3)cc2)no1 [Example 140, 3-(4-benzyloxy-phenyl)-5-(2-methyl-imidazol-1-ylmethyl)-isoxazole] |
| 64% | C#CCN(C)Cc1cc(-c2ccc(OCc3ccccc3)cc2)no1 [Example 178, [3-(4-benzyloxy-phenyl)-isoxazol-5-ylmethyl]-methyl-prop-2-ynyl-amine] |
| 90.4% | NC(=O)OCc1cc(-c2ccc(OCc3cccc(C=O)c3)cc2)no1 [Example 35, carbamic acid 3-[4-(3-formyl-benzyloxy)-phenyl]-isoxazol-5-ylmethyl ester] |
| 26% | Cc1noc(C)c1CNc1ccc(-c2cc(COC(N)=O)on2)cc1 [Example 112, carbamic acid 3-{4-[(3,5-dimethyl-isoxazol-4-ylmethyl)-amino]-phenyl}-isoxazol-5-ylmethyl ester] |
| 68.5% | CC(OC(N)=O)c1cc(-c2ccc(OCc3ccccc3)cc2)no1 (stereo not drawn) [Example 117, carbamic acid 1-[3-(4-benzyloxy-phenyl)-isoxazol-5-yl]-ethyl ester] |
| 83.3% | NC(=O)OCc1cc(-c2ccc(OCc3cc(Cl)ccc3Cl)cc2)no1 [Example 24, carbamic acid 3-[4-(2,5-di-chloro-benzyloxy)-phenyl]-isoxazol-5-ylmethyl ester] |

Same assay, conditions: treatment concentration 100 nM

| inhibition at 0.1 µM | Molecule |
| --- | --- |
| 97.1% | NC(=O)OCc1cc(-c2ccc(OCc3ccc(F)cc3F)cc2)no1 [Example 196, carbamic acid 3-[4-(2,4-difluoro-benzyloxy)-phenyl]-isoxazol-5-ylmethyl ester] |
